# Measurements taken from publication PMC11775380, “Discovery of Novel Nav1.7-Selective Inhibitors with the 1H-Indole-3-Propionamide Scaffold for Effective Pain Relief” (Research, 2025).
# Target: T1, human Nav1.7 (hNav1.7) (Homo sapiens, UniProt Q15858)
# T1 construct: expressed in transfected cells; host or cells: HEK293T
# Experiment: Whole-cell patch-clamp inhibition of Nav1.7 currents in transfected HEK293T cells
# Type: cell-based
# Conditions: 10 μM compound; inhibition rate of Nav1.7
# Procedure: Human embryonic kidney (HEK) 293T (ATCC CRL-3216) and ND7/23 cells (National Collection of Authenticated Cell Cultures SCSP-5026) were cultured under standard conditions (5% CO2, 37 °C) in Dulbecco’s modified Eagle’s medium (DMEM) containing 10% fetal bovine serum and 1% penicillin-streptomycin solution(all from Gibco, Thermo Fisher Scientific, Waltham, MA, USA). When the cells reached 70% to 90% confluence, human Nav1.2 (hNav1.2), human Nav1.3 (hNav1.3), human Nav1.4 (hNav1.4), human Nav1.5 (hNav1.5), and mouse Nav1.6 (mNav1.6) channel plasmids were cotransfected with enhanced green fluorescent protein (eGFP) into HEK293T cells. Additionally, plasmids expressing β1 and β2 subunits tagged with eGFP were cotransfected with the human Nav1.7 (hNav1.7) channel into HEK293T cells. Human Nav1.8 (hNav1.8) was transiently transfected into ND7/23 cells, along with eGFP, using Lipofectamine 2000 (Invitrogen), adhering strictly to the manufacturer’s protocol. For manual patch-clamp experiments, the cells were plated onto glass coverslips and used within 20 to 48 h of transfection.
# Whole-cell patch-clamp recordings were conducted at 25 ± 2 °C, utilizing an EPC 10USB patch-clamp amplifier (HEKA Elektronik, Lambrecht, Germany). Pipettes, with access resistance between 2.0 and 3.0 MΩ, were pulled from borosilicate glass capillary tubes using a 2-step vertical microelectrode puller (PC-10, Narishige Group, Tokyo, Japan). Voltage-clamp recordings were obtained with PatchMaster software v2 × 73 (HEKA Elektronik) 5 min after establishing whole-cell configuration, sampled at 20 kHz, and filtered at 5 kHz. To minimize voltage errors, 80% series resistance compensation was applied. Pipettes were filled with 140 mM CsF, 10 mM NaCl, 1 mM EGTA, and 10 mM HEPES (pH=7.4, adjusted with CsOH). The external solution contained 140 mM NaCl, 2 mM CaCl2, 1 mM MgCl2, 5 mM KCl, 10 mM HEPES, and 10 mM glucose (pH=7.4, adjusted with NaOH). IC50 values were determined in HEK293T or ND7/23 cell lines by voltage clamping at −80 mV, followed by stepping to the V1/2 of inactivation for 8 s to facilitate compound binding.
# T1 sequence (Q15858 whole entry): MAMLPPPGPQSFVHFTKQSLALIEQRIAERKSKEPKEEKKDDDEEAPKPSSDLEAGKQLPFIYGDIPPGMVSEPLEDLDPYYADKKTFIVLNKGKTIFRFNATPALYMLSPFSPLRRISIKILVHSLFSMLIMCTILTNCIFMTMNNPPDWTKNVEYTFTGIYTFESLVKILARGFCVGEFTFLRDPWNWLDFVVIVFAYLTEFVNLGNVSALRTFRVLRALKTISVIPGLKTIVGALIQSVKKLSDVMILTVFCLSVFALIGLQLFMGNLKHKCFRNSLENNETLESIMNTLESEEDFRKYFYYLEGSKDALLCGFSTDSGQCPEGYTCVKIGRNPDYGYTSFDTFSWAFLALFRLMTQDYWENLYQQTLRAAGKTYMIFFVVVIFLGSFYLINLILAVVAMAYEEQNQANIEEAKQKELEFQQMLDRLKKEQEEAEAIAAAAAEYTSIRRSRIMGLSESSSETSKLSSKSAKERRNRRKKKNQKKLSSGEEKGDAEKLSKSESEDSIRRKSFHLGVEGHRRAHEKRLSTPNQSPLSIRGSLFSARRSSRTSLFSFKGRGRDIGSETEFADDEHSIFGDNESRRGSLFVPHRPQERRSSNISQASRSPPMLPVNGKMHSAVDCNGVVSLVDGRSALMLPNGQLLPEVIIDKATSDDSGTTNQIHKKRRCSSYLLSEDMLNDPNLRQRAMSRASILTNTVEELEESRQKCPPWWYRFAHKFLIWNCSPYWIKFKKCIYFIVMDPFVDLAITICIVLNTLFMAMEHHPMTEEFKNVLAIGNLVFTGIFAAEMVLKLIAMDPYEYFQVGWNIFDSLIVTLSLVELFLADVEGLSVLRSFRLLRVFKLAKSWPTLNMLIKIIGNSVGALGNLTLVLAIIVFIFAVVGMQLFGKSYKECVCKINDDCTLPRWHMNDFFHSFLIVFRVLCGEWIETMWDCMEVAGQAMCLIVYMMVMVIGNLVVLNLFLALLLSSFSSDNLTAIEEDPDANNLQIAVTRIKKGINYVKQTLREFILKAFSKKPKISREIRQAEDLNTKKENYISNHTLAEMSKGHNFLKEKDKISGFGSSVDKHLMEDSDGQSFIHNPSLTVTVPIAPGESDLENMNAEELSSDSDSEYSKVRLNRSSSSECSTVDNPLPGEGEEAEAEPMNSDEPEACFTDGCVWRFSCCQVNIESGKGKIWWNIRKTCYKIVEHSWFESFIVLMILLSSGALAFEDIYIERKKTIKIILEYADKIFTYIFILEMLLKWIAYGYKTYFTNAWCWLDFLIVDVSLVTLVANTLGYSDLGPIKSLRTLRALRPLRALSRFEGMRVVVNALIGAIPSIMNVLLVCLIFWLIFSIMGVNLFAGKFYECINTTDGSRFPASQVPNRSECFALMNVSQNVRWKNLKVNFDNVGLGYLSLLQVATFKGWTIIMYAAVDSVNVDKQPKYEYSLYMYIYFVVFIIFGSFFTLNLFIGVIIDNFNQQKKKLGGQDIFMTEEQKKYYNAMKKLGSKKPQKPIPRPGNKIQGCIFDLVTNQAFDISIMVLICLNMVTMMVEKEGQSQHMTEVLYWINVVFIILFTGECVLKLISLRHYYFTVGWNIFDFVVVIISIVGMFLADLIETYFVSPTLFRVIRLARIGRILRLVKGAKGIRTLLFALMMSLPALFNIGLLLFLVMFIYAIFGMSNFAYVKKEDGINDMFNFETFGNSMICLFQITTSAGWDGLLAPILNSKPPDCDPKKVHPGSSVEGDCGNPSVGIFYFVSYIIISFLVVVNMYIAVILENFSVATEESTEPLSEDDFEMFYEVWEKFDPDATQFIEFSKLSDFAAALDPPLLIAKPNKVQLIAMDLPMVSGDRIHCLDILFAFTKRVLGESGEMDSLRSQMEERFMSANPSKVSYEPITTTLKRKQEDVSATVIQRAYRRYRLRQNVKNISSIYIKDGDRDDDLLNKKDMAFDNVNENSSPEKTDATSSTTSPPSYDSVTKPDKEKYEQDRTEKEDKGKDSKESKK
# T1 sequence (Q07699 19-218 partner): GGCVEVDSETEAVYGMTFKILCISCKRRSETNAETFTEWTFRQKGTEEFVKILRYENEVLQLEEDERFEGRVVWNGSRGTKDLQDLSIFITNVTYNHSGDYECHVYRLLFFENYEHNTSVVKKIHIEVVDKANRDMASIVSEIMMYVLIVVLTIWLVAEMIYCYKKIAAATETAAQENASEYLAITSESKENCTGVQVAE
# T1 sequence (O60939 30-215 partner): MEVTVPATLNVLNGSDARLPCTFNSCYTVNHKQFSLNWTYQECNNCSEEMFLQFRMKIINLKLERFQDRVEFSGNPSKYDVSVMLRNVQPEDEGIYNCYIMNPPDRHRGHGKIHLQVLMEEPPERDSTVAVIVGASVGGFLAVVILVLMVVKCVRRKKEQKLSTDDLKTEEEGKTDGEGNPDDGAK
row,Inhibitory activity (10 μM),Molecule
1,19.13% ± 16.30%,(C)C(CC(=O)NCCC1=CC=CC=N1)C2=CN(C3=CC=CC=C32)CC4=CC=CC=C4 [B37]

# Same assay, conditions: HEK-293T; 10 μM compound; inhibition rate of Nav1.7; read-out: Inhibitory activity (10 μM)
row,inhibition at 10 µM,Molecule
1,16%,"O=C(CC(c1cccc(Cl)c1)c1cn(Cc2ccc(F)cc2)c2ccccc12)NCCc1ccccn1 (centres unmarked) [B27, C1=CC=C2C(=C1)C(=CN2CC3=CC=C(C=C3)F)C(CC(=O)NCCC4=CC=CC=N4)C5=CC(=CC=C5)Cl]"
2,29.2%,"O=C(CC(c1cccc(Oc2ccccc2)c1)c1cn(Cc2ccc(F)cc2)c2ccccc12)NCCc1ccccn1 (centres unmarked) [B28, C1=CC=C(C=C1)OC2=CC=CC(=C2)C(CC(=O)NCCC3=CC=CC=N3)C4=CN(C5=CC=CC=C54)CC6=CC=C(C=C6)F]"
3,9.42%,"COc1ccc(Cn2cc(C(CC(=O)NCCc3ccccn3)c3ccc(OC)cc3)c3ccccc32)cc1 (centres unmarked) [B29, COC1=CC=C(C=C1)CN2C=C(C3=CC=CC=C32)C(CC(=O)NCCC4=CC=CC=N4)C5=CC=C(C=C5)OC]"
4,8.62%,"COc1ccc(Cn2cc(C(CC(=O)NCCc3ccccn3)c3cccc(Cl)c3)c3ccccc32)cc1 (centres unmarked) [B30, COC1=CC=C(C=C1)CN2C=C(C3=CC=CC=C32)C(CC(=O)NCCC4=CC=CC=N4)C5=CC(=CC=C5)Cl]"
5,16.6%,"O=C(CC(c1ccc(C(F)(F)F)cc1)c1cn(Cc2ccccc2)c2ccccc12)NCCc1ccccn1 (centres unmarked) [B32, C1=CC=C(C=C1)CN2C=C(C3=CC=CC=C32)C(CC(=O)NCCC4=CC=CC=N4)C5=CC=C(C=C5)C(F)(F)F]"
6,19.8%,"O=C(CC(c1cccc(C(F)(F)F)c1)c1cn(Cc2ccc(F)cc2)c2ccccc12)NCCc1ccccn1 (centres unmarked) [B33, C1=CC=C2C(=C1)C(=CN2CC3=CC=C(C=C3)F)C(CC(=O)NCCC4=CC=CC=N4)C5=CC(=CC=C5)C(F)(F)F]"
7,13.4%,"CC(C)CNC(=O)CC(c1ccc(C(F)(F)F)cc1)c1cn(Cc2ccccc2)c2ccccc12 (centres unmarked) [B34, CC(C)CNC(=O)CC(C1=CC=C(C=C1)C(F)(F)F)C2=CN(C3=CC=CC=C32)CC4=CC=CC=C4]"
8,15.6%,"O=C(CC(c1cccc(C(F)(F)F)c1)c1cn(Cc2ccc(F)cc2)c2ccccc12)NCc1ccncc1 (centres unmarked) [B35, C1=CC=C2C(=C1)C(=CN2CC3=CC=C(C=C3)F)C(CC(=O)NCC4=CC=NC=C4)C5=CC(=CC=C5)C(F)(F)F]"
9,17.2%,"O=C(CC(c1ccc(C(F)(F)F)cc1)c1cn(Cc2ccccc2)c2ccccc12)NCc1ccncc1 (centres unmarked) [B36, C1=CC=C(C=C1)CN2C=C(C3=CC=CC=C32)C(CC(=O)NCC4=CC=NC=C4)C5=CC=C(C=C5)C(F)(F)F]"
10,13.9%,"Cn1cc(C(CC(=O)NCCc2ccccn2)c2ccc(C(F)(F)F)cc2)c2ccccc21 (centres unmarked) [B38, CN1C=C(C2=CC=CC=C21)C(CC(=O)NCCC3=CC=CC=N3)C4=CC=C(C=C4)C(F)(F)F]"
11,16.7%,"O=C(C1CCCN1C(=O)c1csc(Nc2ccc(F)cc2)n1)N1CCOCC1 (centres unmarked) [B39, C1CC(N(C1)C(=O)C2=CSC(=N2)NC3=CC=C(C=C3)F)C(=O)N4CCOCC4]"
12,73.2%,"O=C(CC(c1ccc(C(F)(F)F)cc1)c1cn(Cc2ccc(F)cc2)c2ccccc12)NCCc1ccccn1 (centres unmarked) [WN1, C1=CC=C2C(=C1)C(=CN2CC3=CC=C(C=C3)F)C(CC(=O)NCCC4=CC=CC=N4)C5=CC=C(C=C5)C(F)(F)F]"
13,91.5%,Cc1ccc(Cn2cc(C(CC(=O)NCCN(C)C)c3ccc(F)cc3)c3ccccc32)cc1 (centres unmarked) [WN2]

row,Molecule,inhibition at 10 µM
1,"O=C(CC(c1ccc(C(F)(F)F)cc1)c1cn(Cc2ccc(F)cc2)c2ccccc12)N1CCCC1 (centres unmarked) [B25, C1CCN(C1)C(=O)CC(C2=CC=C(C=C2)C(F)(F)F)C3=CN(C4=CC=CC=C43)CC5=CC=C(C=C5)F]",23.1%
2,"COc1cc(OC)cc(C(CC(=O)NCCc2ccccn2)c2cn(Cc3ccc(F)cc3)c3ccccc23)c1 (centres unmarked) [B26, COC1=CC(=CC(=C1)C(CC(=O)NCCC2=CC=CC=N2)C3=CN(C4=CC=CC=C43)CC5=CC=C(C=C5)F)OC]",26.1%
3,"O=S(=O)(c1ccc(F)cc1)N(c1ccc2c(c1)OCO2)C1CCN(Cc2cccnc2)CC1 [B31, C1CN(CCC1N(C2=CC3=C(C=C2)OCO3)S(=O)(=O)C4=CC=C(C=C4)F)CC5=CN=CC=C5]",16%

# Same assay, conditions: −80 mV holding, step to V1/2 of inactivation for 8 s; HEK293T
row,IC50,Molecule
1,3960 ± 140 nM,"O=C(CC(c1ccc(C(F)(F)F)cc1)c1cn(Cc2ccc(F)cc2)c2ccccc12)NCCc1ccccn1 (centres unmarked) [WN1, C1=CC=C2C(=C1)C(=CN2CC3=CC=C(C=C3)F)C(CC(=O)NCCC4=CC=CC=N4)C5=CC=C(C=C5)C(F)(F)F]"
2,113 ± 36.9 nM,Cc1ccc(Cn2cc([C@@H](CC(=O)NCCN(C)C)c3ccc(F)cc3)c3ccccc32)cc1 [WN2-S]
3,730 ± 120 nM,Cc1ccc(Cn2cc(C(CC(=O)NCCN(C)C)c3ccc(F)cc3)c3ccccc32)cc1 (centres unmarked) [WN2]
